Assay results taken from publication PMC8611018, “Apelin-13 in septic shock: effective in supporting hemodynamics in sheep but compromised by enzymatic breakdown in patients” (Scientific Reports, 2021).

What was measured:
sheep APJ [1] = assay: BRET assay for β-arrestin-2 recruitment in HEK293 cells expressing sheep APJ; assay type: cell-based, sheep (Ovis aries); details: BRET2, HEK293 cells with sheep APJ, 30 min stimulation at 37 °C, n = 3
Description: (§1) BRET experiments were performed as previously described. In brief, HEK293 cells were transfected with plasmids encoding sheep APJ, Gαi1-RlucII ([…]β1 (from cDNA.org) (for the BRET-based Gαi1 activation assay) or encoding sheep APJ-GFP10 and RlucII-β-arrestin2 (for the BRET-based β-arrestin-2 recruitment assay)[50]. To perform the BRET assays, 50,000 cells/well were transferred into white 96-well plates (BD Bioscience, Mississauga, Canada) and incubated at 37 °C overnight. […] After stimulation, 5 μM coelenterazine 400A was added to each well, and the plate was read on a GeniosPro plate reader using the BRET2 filter set (Tecan, Austria). The BRET2 ratio was calculated as […].

sheep APJ [2] = assay: BRET assay for Gαi1 activation in HEK293 cells expressing sheep APJ; assay type: cell-based, sheep (Ovis aries); details: BRET2, HEK293 cells with sheep APJ, 5 min stimulation at 37 °C, n = 3
Description: as §1

[3] = tested on: sheep with fecal peritonitis-induced septic shock; assay: Hemodynamic and renal dose-response to infusion in sheep with fecal peritonitis-induced septic shock; assay type: in vivo
Description: The day before surgery, autologous stool was retrieved for treatment of the sheep selected for fecal peritonitis induction and mixed overnight in 0.9% normal saline (NS) and 5% D-glucose at 37 °C. The animals were fasted overnight. On the morning of the day of surgery, sheep received premedication to ease animal handling and intubation (i.e., intramuscular injections of 0.1 mg/kg atropine and 10 mg/kg ketamine) before routing to the operating room for insertion of an external jugular vein catheter and administration of a 500 mL bolus of Ringer’s lactate (RL). Sheep were then continuously infused with RL (3 mL/kg/h) and 5% D-glucose (2 mL/kg/h). Tracheal intubation (7–8 Fr) was performed in a caddy under isoflurane (1–2%) mask inhalation and by an anterior approach. Sheep were then placed in the supine position on heating pads before ventilator connection (Aestiva 15, Datex-Ohmeda, USA). […]
(§2) Baseline hemodynamic parameters and vital sign measurements (HR: heart rate, MAP: mean arterial pressure, SVR: systemic vascular resistance, CVP: central venous pressure, PAOP: pulmonary artery occlusion pressure and wedge pressure), dP/dt max and min, LV end-systolic pressure (LVESP), CO, stroke volume (SV), GEDV, and extravascular lung water (EVLW) were then recorded. Blood temperature, baseline central venous O2 saturation (ScvO2), and arterial blood gas (RapidLab® 348, Siemens Healthcare Diagnostics, Montreal, Qc, Canada) and lactate levels (Lactate Plus, Nova Biomedical, Waltham, MA, USA) were also monitored. A slightly modified sheep SOFA[46] score was calculated after reached shock criteria defining the “shock” time point and before euthanasia named the “final” time points, defined as a MAP below 65 mmHg for level 1 of the cardiovascular system assessment and assuming a constant level 3 of the central nervous system (Glasgow score 6–9) at “shock”. […]
After 2 g/kg autologous stool slurry was injected into both intra-peritoneal (i.p.) tubes, RL and 5% D-glucose infusions were stopped, and all the above parameters were monitored every 30 min. […]

[4] = Apelinergic stability in human plasma; assay type: in vitro ADME; details: 27 μL plasma + 6 μL 1 mM aqueous peptide, 37 °C, 0, 0.5, 1, 2, 4, 6 h, UPLC-MS, mean ± SEM
Description: (§3) Additional extraction on […] column (Phenomenex, Torrance, CA, USA) with overnight freeze-drying was mandatory for samples used for ELA measurements. […] LS-F25717; […] ELA was quantified using a commercially available ELISA kit (Peninsula Laboratories International; S-1508; CA, USA) with a measurement range of 0-100 ng/mL. […] Proteolytic degradation was stopped by adding 140 μL of 50% acetonitrile, 50% ethanol, and 0.25 mM N, N-dimethylbenzamide at 0, 0.5, 1, 2, 4, or 6 h. […] Next, the reaction mixture was diluted with 80 μL of water and analyzed overnight with an Acquity class H ultra-performance liquid chromatography-mass spectrometry (UPLC-MS) system from Waters (Milford, MA, USA) (column: Acquity UPLC CSH C18, 2.1 mm × 50 mm, packed with 1.7 μm particles). Results were expressed as a percentage of the initial zero-time spike area.

[5] = Apelinergic stability in sheep plasma; assay type: in vitro ADME; details: sheep plasma of baseline and shock time points (n = 18); 27 μL plasma + 6 μL 1 mM aqueous peptide, 37 °C, 0 to 6 h, UPLC-MS
Description: as §3

healthy sheep = assay: Hemodynamic and diuretic dose-response to infusion in healthy sheep; assay type: in vivo
Description: This study was approved by our institutional ethics review board (CFPA: Comité Facultaire de Protection des Animaux, #023-18BR). Thirty-six male Canadian Arcott sheep (33 ± 3 kg, 3 to 4 months old;) were included in this study according to the Animal Research: Reporting of In Vivo Experiments (ARRIVE) guidelines and received care in compliance with the Canadian Council of Animal Care and National Institutes of Health (NIH) guidelines. Animals were housed for at least 48 h before the experiment in dedicated accommodations and bedding.
The day before surgery, autologous stool was retrieved for treatment of the sheep selected for fecal peritonitis induction and mixed overnight in 0.9% normal saline (NS) and 5% D-glucose at 37 °C. The animals were fasted overnight. On the morning of the day of surgery, sheep received premedication to ease animal handling and intubation (i.e., intramuscular injections of 0.1 mg/kg atropine and 10 mg/kg ketamine) before routing to the operating room for insertion of an external jugular vein catheter and administration of a 500 mL bolus of Ringer’s lactate (RL). […]
as §2

sheep APJ [6] = assay: Competitive radioligand binding with [125I]-(pyr1)Apelin-13 on HEK293 cells expressing sheep APJ; parameters: species or system sheep (Ovis aries); details: HEK293 cells with HA-tagged sheep APJ, 0.2 nM [125I]-(pyr1)APLN-13, 1 h at room temperature, n = 3; human APLN-13 compared with human ELA
Excerpt: The sequence of the apelin receptor was synthetized with gBlocks Gene Fragments (Integrated DNA Technologies, USA) and subcloned into […]1 (a modified vector in which we replaced the YFP sequence with that for two HA tags) with an NEBuilder HiFi DNA Assembly Cloning Kit (New England Biolabs, MA, USA). The Ovis aries APJ sequence was obtained from the RefSeq database (XM_027979777.1). […] Thermo Scientific Pierce, Canada)[49]. […] The γ emission was quantified using a γ-counter 1470 Wizard from PerkinElmer (Waltham) (80% efficiency). […] All binding data were calculated and plotted using GraphPad Prism 8 (La Jolla, CA) and represent the mean ± SEM of three replicates.

## CSCC[C@H](NC(=O)[C@@H](NC(=O)[C@H](CC(C)C)NC(=O)[C@H](CC(N)=O)NC(=O)[C@@H](NC(=O)[C@@H]1CCCN1C(=O)[C@H](CCCNC(=N)N)NC(=O)[C@@H](N)CCC(N)=O)C(C)C)[C@@H](C)O)C(=O)N[C@@H](CCCNC(=N)N)C(=O)N[C@@H](CCCNC(=N)N)C(=O)N[C@@H](CCCCN)C(=O)N[C@@H](CC(C)C)C(=O)N[C@@H](CCCNC(=N)N)C(=O)N[C@@H](CCCCN)C(=O)N[C@@H](Cc1c[nH]cn1)C(=O)N[C@@H](CC(N)=O)C(=O)N[C@H]1CSSC[C@@H](C(=O)N[C@@H](CCSC)C(=O)N2CCC[C@H]2C(=O)N[C@@H](CC(C)C)C(=O)N[C@@H](Cc2c[nH]cn2)C(=O)N[C@@H](CO)C(=O)N[C@@H](CCCNC(=N)N)C(=O)N[C@H](C(=O)N2CCC[C@H]2C(=O)N[C@@H](Cc2ccccc2)C(=O)N2CCC[C@H]2C(=O)O)C(C)C)NC(=O)[C@H](CCCNC(=N)N)NC(=O)[C@H](CCCNC(=N)N)NC(=O)[C@H](CCC(N)=O)NC(=O)[C@H](CC(C)C)NC1=O [ELA, Elabela]
Sheep APJ [1]
  potency and efficacy in β-arrestin-2 recruitment, compared with APLN-13: lower potency and efficacy
Sheep APJ [2]
  potency in Gαi1 activation, compared with APLN-13: lower potency
[3]; septic sheep after fluid resuscitation, 2.5 nMol/kg/h, mean ± SEM, n = 6/group
  cardiac output (CO): 2.71 ± 0.41 L/min
[3]; septic sheep, at the end of the last d5 infusion, n = 6/group
  endpoint circulating levels of lactate, cortisol and Tn T: neither APLN-13 nor ELA infusion impacted
[3]; septic sheep, incremental doses 0.025 to 12.5 nmol/kg/h
  FP-induced decreases of monitored hemodynamic parameters: failed to alleviate these decreases
[4]; plasma of patients with sepsis/septic shock (n = 22)
  half-life: 1.15 ± 0.2 h
[4]; plasma, plasma of healthy volunteers (n = 10)
  half-life: 4.3 ± 0.75 h
[5]
  plasma stability (residual percentage of non-degraded peptide): unaffected
Healthy sheep; 6.25 nMol/kg/h, mean ± SEM, n = 6/group
  mean arterial pressure (MAP): 65.4 ± 8.1 mmHg
Healthy sheep; incremental doses 0.025 to 12.5 nmol/kg/h
  systemic vascular resistance: not significantly impacted
Healthy sheep; incremental doses 0.025 to 12.5 nmol/kg/h, PiCCO
  heart rate (HR) and global end-diastolic volume (GEDV): unchanged
Sheep APJ [6]
  affinity for sheep APJ: similar
